From patent US20230265116A1, “DEGRADATION OF (EGFR) BY CONJUGATION OF EGFR INHIBITORS WITH E3 LIGASE LIGAND AND METHODS OF USE” (BEIGENE, LTD., priority 2020, published 2023) come the findings set out here.

As usually defined, the DC50 is the midpoint of the concentration-degradation curve. As a reminder, the Dmax is the greatest extent of degradation seen.

Read-outs that look alike come from different tables or passages of the source.

Experiment [1] deals with T1, EGFR L858R/T790M/C797S (BaF3-LTC cells) (Homo sapiens, UniProt P00533, C797S/L858R/T790M).
T1 construct: expressed in transfected cells; host or cells: BaF3
T1 sequence (P00533 25-1210 T790M/C797S/L858R): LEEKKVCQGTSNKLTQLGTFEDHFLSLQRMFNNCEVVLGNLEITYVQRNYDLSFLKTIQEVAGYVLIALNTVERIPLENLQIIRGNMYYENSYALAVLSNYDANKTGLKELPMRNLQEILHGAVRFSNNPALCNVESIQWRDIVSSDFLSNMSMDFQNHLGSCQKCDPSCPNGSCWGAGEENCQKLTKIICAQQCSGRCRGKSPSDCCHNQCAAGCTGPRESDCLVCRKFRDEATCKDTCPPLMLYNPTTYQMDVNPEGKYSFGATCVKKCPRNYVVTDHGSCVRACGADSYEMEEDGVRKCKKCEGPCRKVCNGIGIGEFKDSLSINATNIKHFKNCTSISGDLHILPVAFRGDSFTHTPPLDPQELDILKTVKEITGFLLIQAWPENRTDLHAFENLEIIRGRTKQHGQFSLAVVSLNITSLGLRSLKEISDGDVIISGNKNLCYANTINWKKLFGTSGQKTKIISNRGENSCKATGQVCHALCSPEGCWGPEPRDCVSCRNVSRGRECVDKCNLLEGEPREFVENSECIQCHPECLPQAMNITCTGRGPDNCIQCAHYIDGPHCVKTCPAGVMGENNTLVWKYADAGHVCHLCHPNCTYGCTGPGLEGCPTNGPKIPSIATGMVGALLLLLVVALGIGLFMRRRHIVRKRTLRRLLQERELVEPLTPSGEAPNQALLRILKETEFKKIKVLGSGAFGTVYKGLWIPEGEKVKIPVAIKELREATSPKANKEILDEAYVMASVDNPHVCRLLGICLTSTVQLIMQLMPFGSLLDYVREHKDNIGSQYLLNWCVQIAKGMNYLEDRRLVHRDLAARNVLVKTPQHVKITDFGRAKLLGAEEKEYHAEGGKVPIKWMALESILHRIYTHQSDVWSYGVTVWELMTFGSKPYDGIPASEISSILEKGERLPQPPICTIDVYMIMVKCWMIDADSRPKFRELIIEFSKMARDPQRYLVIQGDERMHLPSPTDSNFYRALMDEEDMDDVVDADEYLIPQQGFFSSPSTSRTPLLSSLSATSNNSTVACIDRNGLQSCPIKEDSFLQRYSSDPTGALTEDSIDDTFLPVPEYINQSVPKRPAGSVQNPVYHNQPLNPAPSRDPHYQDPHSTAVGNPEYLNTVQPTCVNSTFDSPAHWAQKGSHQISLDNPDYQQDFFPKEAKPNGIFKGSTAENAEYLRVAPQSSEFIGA
Put plainly: EGFR degradation HTRF assay, BaF3-LTC cells. The class given is cell-based. An outline of the steps: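 EGFR remaining after a 16 h, 37 °C exposure (8 doses, 5-fold steps from 10 uM final, 0.2% DMSO) was quantified by HTRF antibodies in cell lysate. Percent inhibition relative to DMSO control was fitted by four-parameter logistic to give DC50; Dmax denotes maximal degradation.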
On the technique in general: Time-resolved FRET reads energy transfer from a long-lived donor to a nearby acceptor.

The test system of experiment [2] is EGFR Del19/T790M/C797S (H1975-clone #28). Put plainly: EGFR degradation HTRF assay, H1975-clone #28 DTC cells. It counts as cell-based. The procedure, abridged:
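Read-out is an HTRF EGFR signal (337 nm excitation, 665/620 nm) from lysates of mutant-EGFR H1975 clones in which only the exogenous EGFR survives knockout. Treatment ran 16h at 37° C. from 10 uM final downward in 5-fold steps. DC50 comes from a logistic fit and Dmax is the maximal degradation.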

Where [3] appears, read: BaF3-LTC cells; EGFR degradation, IC50 (DC50) from curve fit; read-out: DC50(nM) BaF3-LTC.
[4] abbreviates: BaF3-LTC cells; maximum percentage of inhibition (degradation); read-out: Dmax (%) BaF3-LTC.
[5] abbreviates: H1975 # 28 DTC cells; EGFR degradation, IC50 (DC50) from curve fit; read-out: DC50(nM) H1975 # 28 DTC.
[6] abbreviates: H1975 # 28 DTC cells; maximum percentage of inhibition (degradation).

As to `CCc1cnc2c(P(C)(C)=O)c(Nc3nc(Nc4cc(CC)c(N5CCC(N6CCN(C(=O)[C@@H]7CCN(c8cc(F)c([C@H]9CCC(=O)NC9=O)c(F)c8)C7)CC6)CC5)cc4OC)ncc3Br)ccc2n1` [Example 538, (R)-3-(4-((R)-3-(4-(1-(4-((5-bromo-4-((5-(dimethylphosphoryl)-2-ethylquinoxalin-6-yl)amino)pyrimidin-2-yl)amino)-2-ethyl-5-methoxyphenyl)piperidin-4-yl)piperazine-1-carbonyl)pyrrolidin-1-yl)-2,6-difluorophenyl)piperidine-2,6-dione], the DC50 was 16.2 nM in experiment [1] (setting [3]) and 2.39 nM in experiment [2] (setting [5]). Also, the Dmax in experiment [1] (setting [4]) stood at 89.6%. In addition, the “Dmax (%) H1975 # 28 DTC” value in experiment [2] (setting [6]) was found to be 80.57%.
As for `CCOc1cc(N2CCC(N3CCN(CCc4cc(Cl)cc5c4oc(=O)n5C4CCC(=O)NC4=O)CC3)CC2)c(CC)cc1Nc1ncc(Br)c(Nc2ccc3c(=O)n(CC)ncc3c2P(C)(C)=O)n1` (stereo not shown) [Example 599, 3-(7-(2-(4-(1-(4-((5-bromo-4-((5-(dimethylphosphoryl)-2-ethyl-1-oxo-1,2-dihydrophthalazin-6-yl)amino)pyrimidin-2-yl)amino)-5-ethoxy-2-ethylphenyl)piperidin-4-yl)piperazin-1-yl)ethyl)-5-chloro-2-oxobenzo[d]oxazol-3(2H)-yl)piperidine-2,6-dione], the DC50 in experiment [1] (setting [3]) is 25 nM; in experiment [2] (setting [5]), 1.91 nM. Moreover, the maximal degradation (Dmax) in experiment [1] (setting [4]) came to 73.9%. Also, in experiment [2] (setting [6]), the “Dmax (%) H1975 # 28 DTC” value came to 80.53%.
In the same order, the values of `CCOc1cc(N2CCC(N3CCN(CC4CCN(c5cccc6c5oc(=O)n6C5CCC(=O)NC5=O)CC4)CC3)CC2)c(CC)cc1Nc1ncc(Br)c(Nc2ccc3c(=O)n(CC)ncc3c2P(C)(C)=O)n1` (stereo not shown) [Example 582, 3-(7-(4-((4-(1-(4-((5-bromo-4-((5-(dimethylphosphoryl)-2-ethyl-1-oxo-1,2-dihydrophthalazin-6-yl)amino)pyrimidin-2-yl)amino)-5-ethoxy-2-ethylphenyl)piperidin-4-yl)piperazin-1-yl)methyl)piperidin-1-yl)-2-oxobenzo[d]oxazol-3(2H)-yl)piperidine-2,6-dione] are 8.54 nM, 1.06 nM, 93.1% and 79.64%.
For `CCc1ccc2c(P(C)(C)=O)c(Nc3nc(Nc4cc(CC)c(N5CCC(N6CCN(CCCc7ccc8c(c7)oc(=O)n8C7CCC(=O)NC7=O)CC6)CC5)cc4OC)ncc3Br)ccc2n1` (stereo not shown) [Example 456, 3-(6-(3-(4-(1-(4-((5-bromo-4-((5-(dimethylphosphoryl)-2-ethylquinolin-6-yl)amino)pyrimidin-2-yl)amino)-2-ethyl-5-methoxyphenyl)piperidin-4-yl)piperazin-1-yl)propyl)-2-oxobenzo[dloxazol-3(2H)-yl)piperidine-2,6-dione], the DC50 was found to be 3.56 nM in experiment [1] (setting [3]) and 0.621 nM in experiment [2] (setting [5]). The greatest degradation seen (Dmax) in experiment [1] (setting [4]) came out at 89.9%. The “Dmax (%) H1975 # 28 DTC” value in experiment [2] (setting [6]) came to 71.36%.
On to `CCOc1cc(N2CCC(N3CCN(CCCc4cc(F)cc5c4oc(=O)n5C4CCC(=O)NC4=O)CC3)CC2)c(CC)cc1Nc1ncc(Br)c(Nc2ccc3nc(CC)ncc3c2P(C)(C)=O)n1` (stereo not shown) [Example 617, 3-(7-(3-(4-(1-(4-((5-bromo-4-((5-(dimethylphosphoryl)-2-ethylquinazolin-6-yl)amino)pyrimidin-2-yl)amino)-5-ethoxy-2-ethylphenyl)piperidin-4-yl)piperazin-1-yl)propyl)-5-fluoro-2-oxobenzo[d]oxazol-3(2H)-yl)piperidine-2,6-dione], for which the “Dmax (%) BaF3-LTC” value in experiment [1] (BaF3-LTC cells; maximum percentage of inhibition (degradation)) was determined as 91.31%. For the same compound, the DC50 came to 5.77 nM in experiment [1] (read-out: DC50(nM) BaF3-LTC; BaF3-LTC cells; EGFR degradation, IC50 (DC50) from curve fit) and 1.15 nM in experiment [2] (read-out: DC50(nM) H1975 # 28 DTC; H1975 # 28 DTC cells; EGFR degradation, IC50 (DC50) from curve fit). In experiment [2] (setting [6]), the “Dmax (%) H1975 # 28 DTC” value is given as 74.31%.
On to `CCOc1cc(N2CCC(N3CCN(CCc4cc(F)c5c(c4)C4(CC4)C(=O)N5C4CCC(=O)NC4=O)CC3)CC2)c(CC)cc1Nc1ncc(Br)c(Nc2ccc3nc(CC)ccc3c2P(C)(C)=O)n1` (stereo not shown) [Example 659, 3-(5′-(2-(4-(1-(4-((5-bromo-4-((5-(dimethylphosphoryl)-2-ethylquinolin-6-yl)amino)pyrimidin-2-yl)amino)-5-ethoxy-2-ethylphenyl)piperidin-4-yl)piperazin-1-yl)ethyl)-7′-fluoro-2′-oxospiro[cyclopropane-1,3′-indolin]-1′-yl)piperidine-2,6-dione], for which the DC50 was found to be 17.8 nM in experiment [1] (setting [3]) and 2.8 nM in experiment [2] (setting [5]). In experiment [1] (setting [4]), the maximal degradation (Dmax) amounted to 73.3%. For the same compound, in experiment [2] (setting [6]), the “Dmax (%) H1975 # 28 DTC” value came out at 77.5%.
In the same order, the values of `CCOc1cc(N2CCC(N3CCN(C(=O)[C@@H]4CCN(c5cc(F)c([C@H]6CCC(=O)NC6=O)c(F)c5)C4)CC3)CC2)c(CC)cc1Nc1ncc(Br)c(Nc2cc(F)c3ncccc3c2P(C)(C)=O)n1` [Example 678, (R)-3-(4-((R)-3-(4-(1-(4-((5-bromo-4-((5-(dimethylphosphoryl)-8-fluoroquinolin-6-yl)amino)pyrimidin-2-yl)amino)-5-ethoxy-2-ethylphenyl)piperidin-4-yl)piperazine-1-carbonyl)pyrrolidin-1-yl)-2,6-difluorophenyl)piperidine-2,6-dione] are 5.8 nM, 1.39 nM, 94.9% and 81.53%.
For `CCc1cc(Nc2ncc(Br)c(Nc3ccc4c(=O)n(C)ncc4c3P(C)(C)=O)n2)c(OC)cc1N1CCC(N2CCN(CCc3ccc4c(c3)oc(=O)n4C3CCC(=O)NC3=O)CC2)CC1` (stereo not shown) [Example 523, 3-(6-(2-(4-(1-(4-((5-bromo-4-((5-(dimethylphosphoryl)-2-methyl-1-oxo-1,2-dihydrophthalazin-6-yl)amino)pyrimidin-2-yl)amino)-2-ethyl-5-methoxyphenyl)piperidin-4-yl)piperazin-1-yl)ethyl)-2-oxobenzo[d]oxazol-3(2H)-yl)piperidine-2,6-dione], in that order: 1.97 nM, 0.571 nM, 95.9% and 72.16%.
In the same order, the values of `CCOc1cc(N2CCC(N3CCN(CCc4cc5oc(=O)n(C6CCC(=O)NC6=O)c5cc4Cl)CC3)CC2)c(CC)cc1Nc1ncc(Br)c(Nc2ccc3c(=O)n(CC)ncc3c2P(C)(C)=O)n1` (stereo not shown) [Example 626, 3-(6-(2-(4-(1-(4-((5-bromo-4-((5-(dimethylphosphoryl)-2-ethyl-1-oxo-1,2-dihydrophthalazin-6-yl)amino)pyrimidin-2-yl)amino)-5-ethoxy-2-ethylphenyl)piperidin-4-yl)piperazin-1-yl)ethyl)-5-chloro-2-oxobenzo[d]oxazol-3(2H)-yl)piperidine-2,6-dione] are 5.43 nM, 0.711 nM, 91% and 76.73%.
With `COc1cc(N2CCC3(CCN(C(=O)[C@@H]4CCN(c5cc(F)c([C@H]6CCC(=O)NC6=O)c(F)c5)C4)CC3)CC2)c(C)cc1Nc1ncc(Br)c(Nc2ccc3nccnc3c2P(C)(C)=O)n1` [Example 667, (R)-3-(4-((R)-3-(9-(4-((5-bromo-4-((5-(dimethylphosphoryl)quinoxalin-6-yl)amino)pyrimidin-2-yl)amino)-5-methoxy-2-methylphenyl)-3,9-diazaspiro[5.5]undecane-3-carbonyl)pyrrolidin-1-yl)-2,6-difluorophenyl)piperidine-2,6-dione], the 50% degradation concentration (DC50) in experiment [1] (setting [3]) stood at 13.3 nM; in experiment [2] (setting [5]), 3.69 nM. For the same compound, in experiment [1] (setting [4]), the greatest degradation seen (Dmax) worked out at 84%. In experiment [2] (setting [6]), the “Dmax (%) H1975 # 28 DTC” value amounted to 77.43%.
On to `COc1cc(N2CCC(N3CCN(C(=O)[C@@H]4CCN(c5cc(F)c([C@H]6CCC(=O)NC6=O)c(F)c5)C4)CC3)CC2)c(C)cc1Nc1ncc(Br)c(Nc2ccc3nc(C)c(F)cc3c2P(C)(C)=O)n1` [Example 732, (R)-3-(4-((R)-3-(4-(1-(4-((5-bromo-4-((5-(dimethylphosphoryl)-3-fluoro-2-methylquinolin-6-yl)amino)pyrimidin-2-yl)amino)-5-methoxy-2-methylphenyl)piperidin-4-yl)piperazine-1-carbonyl)pyrrolidin-1-yl)-2,6-difluorophenyl)piperidine-2,6-dione], for which the DC50 in experiment [1] (setting [3]) was 4.07 nM; in experiment [2] (setting [5]), 0.624 nM. The “Dmax (%) H1975 # 28 DTC” value in experiment [2] (setting [6]) came to 86.49%.
In the same order, the values of `CCOc1cc(N2CCC(N3CCN(C(=O)[C@H]4CN(c5cc(F)c([C@H]6CCC(=O)NC6=O)c(F)c5)CC4(C)C)CC3)CC2)c(C)cc1Nc1ncc(Br)c(Nc2ccc3nc(C)ccc3c2P(C)(C)=O)n1` [Example 727, (R)-3-(4-((R)-4-(4-(1-(4-((5-bromo-4-((5-(dimethylphosphoryl)-2-methylquinolin-6-yl)amino)pyrimidin-2-yl)amino)-5-ethoxy-2-methylphenyl)piperidin-4-yl)piperazine-1-carbonyl)-3,3-dimethylpyrrolidin-1-yl)-2,6-difluorophenyl)piperidine-2,6-dione] are 8.61 nM, 4.29 nM and 77.39%.
